Patent US4220755A, “Fortimicin B derivatives and process for production thereof” (Abbott Laboratories, priority 1976, dated 1980)
In brackets after ≈: the same amount, converted by molar mass. Read-outs that look alike come from different tables or passages of the source.

Tests used:
Escherichia coli NIHTC-2 = test: MIC, agar dilution method, pH 7.2; type: cell-based
Experimental: (§1) Measurement was carried out according to the agar dilution method, using a medium of pH 8.0, or the Japanese Antibiotic Medicament Standard, using a medium of pH 7.2 Units are in mcg/ml.

[1] = test system: Eschericihia coli GN2411-5; test: MIC, agar dilution method, pH 7.2; type: cell-based; settings: Escherichia coli
Experimental: as §1

[2] = test system: Klebsiella pneumoniae KY4274; test: MIC, agar dilution method, pH 7.2; type: cell-based
Experimental: as §1

Proteus vulgaris JJ = test: MIC, agar dilution method, pH 7.2; type: cell-based
Experimental: as §1

[3] = test system: Pseudomonas aeruginosa BMH# 1; test: MIC, agar dilution method, pH 7.2; type: cell-based
Experimental: as §1

[4] = test system: Pseudomonas aeruginosa UCLA 4184; test: MIC, agar dilution method, pH 7.2; type: cell-based; settings: UCLA4184; pH 7.2; Pseudomonas aeruginosa UCLA 4184; read-out: Minimum inhibition concentration (MIC)
Experimental: as §1

[5] = test system: Salmonella enteritidis G-14; test: MIC, agar dilution method, pH 7.2; type: cell-based; settings: Salmonella enterica
Experimental: as §1

Shigella sonnei ATCC9290 = test: MIC, agar dilution method, pH 7.2; type: cell-based; settings: read-out: Minimum inhibition concentration (MIC)
Experimental: as §1

[6] = test system: Staphylococcus aureus 209-P; test: MIC, agar dilution method, pH 7.2; type: cell-based; settings: pH 7.2; Staphylococcus aureus 209-P; read-out: Minimum inhibition concentration (MIC)
Experimental: as §1

[7] = test system: Staphylococcus aureus Smith (A); test: MIC, agar dilution method, pH 7.2; type: cell-based; settings: pH 7.2; Staphylococcus aureus Smith (A); read-out: Minimum inhibition concentration (MIC)
Experimental: as §1

[8] = test system: Staphylococcus a ureus 226; test: MIC, agar dilution method, pH 7.2; type: cell-based, Staphylococcus aureus; settings: pH 7.2; Staphylococcus aureus 226; read-out: Minimum inhibition concentration (MIC)
Experimental: as §1

[9] = test system: Escherichia coli 57R/W677; test: MIC, agar dilution method, pH 7.2; type: cell-based; settings: 57R/W677, pH 7.2, read-out: Minimum inhibition concentration (MIC)
Experimental: as §1
(§2) **1: gentamicin, producing adenylsynthetase.

Escherichia coli 76-2 = test: MIC, agar dilution method, pH 7.2; type: cell-based
Experimental: as §1, §2

[10] = test system: Escherichia coli R12 Z-338; test: MIC, agar dilution method, pH 7.2; type: cell-based; settings: R12Z338, pH 7.2, E. coli R12 Z-338, 1**: gentamicin, producing adenylsynthetase, read-out: Minimum inhibition concentration (MIC)
Experimental: as §1, §2

[11] = test system: Klebsiella pneumoniae 3020 Y-60; test: MIC, agar dilution method, pH 7.2; type: cell-based; settings: 3020Y60; pH 7.2; Klebsiella pneumoniae 3020 Y-60; 1**: gentamicin, producing adenylsynthetase; read-out: Minimum inhibition concentration (MIC)
Experimental: as §1, §2

[12] = test system: Escherichia coli R18 KY8321; test: MIC, agar dilution method, pH 7.2; type: cell-based; settings: R18KY8321, E. coli R18 KY8321, 2**: gentamicin, producing adenylsynthetase and neomycin phosphotransferase type II, read-out: Minimum inhibition concentration (MIC)
Experimental: as §1
2: gentamicin, producing adenylsynthetase and neomycin phosphotransferase

[13] = test system: Escherichia coli R17 Z343; test: MIC, agar dilution method, pH 7.2; type: cell-based
Experimental: as §1
(§3) 3: kanamycin, producing acetyltransferase.

[14] = test system: Pseudomonas aeruginosa R9 KY8516; test: MIC, agar dilution method, pH 7.2; type: cell-based; settings: R9KY8516, pH 7.2, P. aeruginosa R9 KY8516, 3**: kanamycin, producing acetyltransferase, read-out: Minimum inhibition concentration (MIC)
Experimental: as §1, §3

[15] = test system: Escherichia coli R20 KY8349; test: MIC, agar dilution method, pH 7.2; type: cell-based
Experimental: as §1
5: neomycin, producing phosphotransferase type I.

[16] = test system: Pseudomonas aeruginosa R5 KY8512; test: MIC, agar dilution method, pH 7.2; type: cell-based
Experimental: as §1
6: neomycin, producing phosphotransferase type I and type II.

Providencia sp 164 = test: MIC, agar dilution method, pH 7.2; type: cell-based; settings: pH 7.2; Providencia sp 164; 7**: gentamicin, producing acetyltransferase type II; read-out: Minimum inhibition concentration (MIC)
Experimental: as §1
7: gentamicin, producing acetyltransferase type II.

[17] = test system: Staphylococcus aureus KY4279 ATCC6538P; test: MIC, agar dilution method, pH 8.0; type: cell-based; settings: pH 8.0, Staphylococcus aureus KY4279, read-out: Minimum inhibition concentration (MIC), SA
Experimental: as §1
S.A.: Staphylococcus aureus KY4279 ATCC6538P

Bacillus subtilis KY4273 = test: MIC, agar dilution method, pH 8.0; type: cell-based; settings: pH 8.0; Bacillus subtilis KY4273; read-out: Minimum inhibition concentration (MIC), BS
Experimental: as §1
B.S.: Bacillus subtilis KY4273

[18] = test system: Eschericia coli KY4271 ATCC26; test: MIC, agar dilution method, pH 8.0; type: cell-based; settings: Escherichia coli, ATCC26; pH 8.0; E. coli KY4271; read-out: Minimum inhibition concentration (MIC), EC
Experimental: as §1
E.C.: Eschericia coli KY4271 ATCC26

[19] = test system: Proteus vulgaris KY4277 ATCC6897; test: MIC, agar dilution method, pH 8.0; type: cell-based; settings: ATCC6897; pH 8.0; Proteus vulgaris KY4277; read-out: Minimum inhibition concentration (MIC), PV
Experimental: as §1

[20] = test system: Shigella sonnei KY4281 ATCC9290; test: MIC, agar dilution method, pH 8.0; type: cell-based; settings: ATCC9290; pH 8.0; Shigella sonnei KY4281; read-out: Minimum inhibition concentration (MIC), SS
Experimental: as §1

[21] = test system: Salmonella typhosa KY4278 ATCC9992; test: MIC, agar dilution method, pH 8.0; type: cell-based; settings: Salmonella enterica, pH 8, read-out: Minimum inhibition concentration (MIC), ST
Experimental: as §1
S.T.: Salmonella typhosa KY4278 ATCC9992

[22] = test system: Klebsiella pneumoniae KY4275 ATCC10031; test: MIC, agar dilution method, pH 8.0; type: cell-based; settings: ATCC10031; pH 8.0; Klebsiella pneumoniae KY4275; read-out: Minimum inhibition concentration (MIC), KP
Experimental: as §1
K.P.: Klebsiella pneumoniae KY4275 ATCC10031.

Compound	MIC [4] [µg/mL]	MIC (Shigella sonnei ATCC9290) [µg/mL]	MIC [6] [µg/mL]	MIC [7] [µg/mL]	MIC [8] [µg/mL]	MIC [9] [µg/mL]	MIC [10] [µg/mL]	MIC [11] [µg/mL]	MIC [12] [µg/mL]	MIC [14] [µg/mL]	MIC (Providencia sp 164) [µg/mL]	MIC [17] [µg/mL]	MIC (Bacillus subtilis KY4273) [µg/mL]	MIC [18] [µg/mL]	MIC [19] [µg/mL]	MIC [20] [µg/mL]	MIC [21] [µg/mL]	MIC [22] [µg/mL]	other results
CO[C@H]1[C@@H](O)[C@H](N)[C@@H](O[C@H]2O[C@H]([C@H](C)N)CC[C@H]2N)[C@H](O)[C@@H]1N(C)C(=O)CNC(N)=O [Compound 3, 4-N-hydantoylfortimicin B, reference compound]	50 (≈ 111 µM)	25 (≈ 55.7 µM)	3.12 (≈ 6.96 µM)	6.25 (≈ 13.9 µM)	6.25 (≈ 13.9 µM)	25 (≈ 55.7 µM)	6.25 (≈ 13.9 µM)	100 (≈ 223 µM)	6.25 (≈ 13.9 µM)	> 100	100 (≈ 223 µM)	0.16 (≈ 0.357 µM)	0.32 (≈ 0.713 µM)	0.08 (≈ 0.178 µM)	0.63 (≈ 1.4 µM)	1.25 (≈ 2.79 µM)	0.32 (≈ 0.713 µM)	0.63 (≈ 1.4 µM)	MIC (Escherichia coli NIHTC-2; NIHTC2, pH 7.2, Escherichia coli NIHTC-2, read-out: Minimum inhibition concentration (MIC)): 12.5 µg/mL (≈ 27.9 µM); MIC ([1]; pH 7.2, E. coli GN2411-5, read-out: Minimum inhibition concentration (MIC)): 25 µg/mL (≈ 55.7 µM); MIC ([2]; pH 7.2, Klebsiella pneumoniae KY4274, read-out: Minimum inhibition concentration (MIC)): 12.5 µg/mL (≈ 27.9 µM); MIC (Proteus vulgaris JJ; pH 7.2, Proteus vulgaris JJ, read-out: Minimum inhibition concentration (MIC)): 12.5 µg/mL (≈ 27.9 µM); MIC ([3]; pH 7.2, Pseudomonas aeruginosa BMH# 1, read-out: Minimum inhibition concentration (MIC)): 100 µg/mL (≈ 223 µM); MIC ([5]; pH 7.2, Salmonella enteritidis G-14, read-out: Minimum inhibition concentration (MIC)): 25 µg/mL (≈ 55.7 µM); MIC (Escherichia coli 76-2; Escherichia coli, 762, pH 7.2, E. coli 76-2, 1**: gentamicin, producing adenylsynthetase, read-out: Minimum inhibition concentration (MIC)): 12.5 µg/mL (≈ 27.9 µM); MIC ([13]; R17Z343, pH 7.2, E. coli R17 Z343, 3**: kanamycin, producing acetyltransferase, read-out: Minimum inhibition concentration (MIC)): 3.12 µg/mL (≈ 6.96 µM); MIC ([15]; R20KY8349, pH 7.2, E. coli R20 KY8349, 5**: neomycin, producing phosphotransferase type I, read-out: Minimum inhibition concentration (MIC)): 12.5 µg/mL (≈ 27.9 µM); MIC ([16]; R5KY8512, pH 7.2, P. aeruginosa R5 KY8512, 6**: neomycin, producing phosphotransferase type I and type II, read-out: Minimum inhibition concentration (MIC)): 50 µg/mL (≈ 111 µM)
CO[C@H]1[C@@H](O)[C@H](N)[C@@H](O[C@H]2O[C@H]([C@H](C)N)CC[C@H]2N)[C@H](O)[C@@H]1N(C)C[C@@H](O)CCN [Compound 27, 4-N-[(S)-4-amino-2-hydroxybutyl]fortimicin B]	25 (≈ 57.4 µM)	3.12 (≈ 7.16 µM)	0.4 (≈ 0.918 µM)	0.4 (≈ 0.918 µM)	0.4 (≈ 0.918 µM)	12.5 (≈ 28.7 µM)	12.5 (≈ 28.7 µM)	12.5 (≈ 28.7 µM)	6.25 (≈ 14.3 µM)	25 (≈ 57.4 µM)	25 (≈ 57.4 µM)	0.04 (≈ 0.0918 µM)	0.04 (≈ 0.0918 µM)	0.16 (≈ 0.367 µM)	0.32 (≈ 0.735 µM)	1.25 (≈ 2.87 µM)	0.16 (≈ 0.367 µM)	0.32 (≈ 0.735 µM)	MIC (Escherichia coli NIHTC-2; Escherichia coli, NIHTC2, pH 7.2, read-out: Minimum inhibition concentration (MIC)): 3.12 µg/mL (≈ 7.16 µM); MIC ([1]; GN2411, pH 7.2, read-out: Minimum inhibition concentration (MIC)): 6.25 µg/mL (≈ 14.3 µM); MIC ([2]; Klebsiella pneumoniae, KY4274, pH 7.2, read-out: Minimum inhibition concentration (MIC)): 3.12 µg/mL (≈ 7.16 µM); MIC (Proteus vulgaris JJ; Proteus vulgaris, pH 7.2, read-out: Minimum inhibition concentration (MIC)): 3.12 µg/mL (≈ 7.16 µM); MIC ([3]; Pseudomonas aeruginosa, pH 7.2, read-out: Minimum inhibition concentration (MIC)): 6.25 µg/mL (≈ 14.3 µM); MIC ([5]; ENTERITIDIS, pH 7.2, read-out: Minimum inhibition concentration (MIC)): 3.12 µg/mL (≈ 7.16 µM); MIC (Escherichia coli 76-2; Escherichia coli, 762, pH 7.2, read-out: Minimum inhibition concentration (MIC)): 6.25 µg/mL (≈ 14.3 µM); MIC ([13]; R17Z343, pH 7.2, read-out: Minimum inhibition concentration (MIC)): 3.12 µg/mL (≈ 7.16 µM); MIC ([15]; R20KY8349, pH 7.2, read-out: Minimum inhibition concentration (MIC)): 1.25 µg/mL (≈ 2.87 µM); MIC ([16]; R5KY8512, pH 7.2, read-out: Minimum inhibition concentration (MIC)): 6.25 µg/mL (≈ 14.3 µM)
